According to EP1699833B1, “OLIGOMERS CONTAINING N-ACETYL GLUCOSAMINE” (Council of Scientific and Industrial Research, priority 2003, dated 2005):
pIC50: −log10 of the molar value.

Target: lysozyme (Gallus gallus, UniProt P00698)
Assay: Relative inhibition of lysozyme (lysis of Micrococcus lysodeikticus, absorbance at 450 nm)
Format: biochemical
Settings: Micrococcus lysodeikticus substrate, phosphate buffer pH 6.2, 20° C; for pIC50: read-out: I50; for Imax: maximum inhibition; for concentration at maximum inhibition: concentration at Imax
Description: This example describes estimation of relative inhibition of lysozyme by polyvalent oligomer containing NAG
1.5 % w/v stock solutions of oligomer containing NAG was prepared in 0.0066 M phosphate buffer pH 6.2 containing 0.0154 m sodium chloride and 0.008 M sodium azide. One milliliter of stock solution containing different ligand concentration was mixed with 1.6 ml of 78 µg1ml of Micrococcus lysodeikticus in a 3-ml capacity lass cuvette. The mixture was incubated for 5 minutes at 20° C. To this mixture 0.1 ml of lysozyme (27 µg1ml) was added and mixed thoroughly. The absorbance at 450 nm (Δ450) was recorded for 30 seconds. A blank reading without the polymer ligand was noted and the change in the absorbance per second was calculated.

lysozyme, sequence (P00698 19-147): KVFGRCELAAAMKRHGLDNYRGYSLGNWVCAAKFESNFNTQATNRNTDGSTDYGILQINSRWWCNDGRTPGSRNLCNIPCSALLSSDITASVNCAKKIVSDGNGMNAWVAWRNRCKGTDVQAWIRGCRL

Molecule	pIC50	Imax	concentration at maximum inhibition [mM]
C=CC(=O)OCC1OC(O)C(NC(C)=O)C(O)C1O (stereo not shown) [Ac .NAG, Acryloyl N-Acetyl Glucosamine]	1.83	50.00	–
CC(=O)N[C@H]1C(O)O[C@H](CO)[C@@H](O)[C@@H]1O (stereo partly shown) [NAG, N-Acetyl Glucosamine]	–	55.29	92.50
Methacryloyl N-Acetyl Glucosamine [M.Ac. NAG]	1.74	71.89	21.2
